Source: patent publication US9952208B2, “Means and methods for bioluminescence resonance energy transfer (BRET) analysis in a biological sample” (priority 2013, dated 2018)

Test system: DIG10.3
Assay: Binding of tethered ligand to binding protein DIG10.3

CC(=O)[C@H]1CC[C@H]2[C@@H]3CCC4=CC(=O)CC[C@]4(C)[C@H]3CC[C@]12C [Progesterone, progesterone]
binding to DIG10.3: binds weakly
